Measurements published in patent US20100311801A1, “USE OF TETRAMIC ACID DERIVATIVES FOR CONTROLLING NEMATODES” (priority 2007, published 2010).
Values joined by “and” are separate entries in the source; they are usually repeats but may differ in a detail not shown here. Equal entries are not always repeated.

How the values were obtained:
Assay type in all cases: in vivo
[1] = system: Mesocriconema xenoplax; test: Vine field trial, number of nematodes in soil after foliar (I-2) or drench (imidacloprid) application; conditions: vines, (I-2) 12.5 fl oz per 605 plants foliar, imidacloprid 14 fl oz drench; for Activity against Mesocriconema xenoplax, number of nematodes, 30 d: 30 days after first treatment; for Activity against Mesocriconema xenoplax, number of nematodes, 60 d: 60 days after first treatment; for Activity against Mesocriconema xenoplax, number of nematodes, 0 d: prior to treatment
Protocol: (§1) In 5 replications, in each case 15 vines of the cultivar “Thompson Seedless 1948” are treated against soil-dwelling nematodes using a fogger. Here, a tank mix of the active compound (I-2) (SC 240) is applied after foliar application at the stated application rates with 0.25% of the adjuvant Activator 90, in comparison to imidacloprid (SC 550) after drench application by micro-irrigation injection. The water application rate is 75 gallons per acre=605 plants. Two applications of active compound (I-2) are carried out at an interval of 32 days.
(§2) Evaluation is carried out prior to the treatment and 30 days and 60 days after the first treatment by counting the number of nematodes in 500 g of soil.

[2] = system: Meloidogyne incognita; test: as above; conditions: for Activity against Meloidogyne incognita, number of nematodes, 0 d: vines Thompson Seedless, prior to treatment, (I-2) SC 240 12.5 fl oz per 605 plants foliar, imidacloprid SC 550 14 fl oz drench; for Activity against Meloidogyne incognita, number of nematodes, 30 d / Activity against Meloidogyne incognita, number of nematodes, 60 d: vines, (I-2) 12.5 fl oz per 605 plants foliar (2 applications, 32 d interval), imidacloprid 14 fl oz drench; for Activity against Meloidogyne incognita, number of nematodes, 30 d: 30 days after first treatment; for Activity against Meloidogyne incognita, number of nematodes, 60 d: 60 days after first treatment
Protocol: as §1, §2

[3] = system: Pratylenchus sp.; test: as above; conditions: vines, (I-2) 12.5 fl oz per 605 plants foliar, imidacloprid 14 fl oz drench; for Activity against Pratylenchus sp., number of nematodes, 30 d: 30 days after first treatment; for Activity against Pratylenchus sp., number of nematodes, 60 d: 60 days after first treatment; for Activity against Pratylenchus sp., number of nematodes, 0 d: prior to treatment
Protocol: as §1, §2

[4] = system: Tylenchulus semipenetrans; test: Foliar application of (I-2) to citrus in pots for control of Tylenchulus semipenetrans; conditions: individual trees
Protocol: Foliar Application of (I-2) to Citrus in Pots for Control of Tylenchulus semipenetrans
Treatments: 15 trees sprayed with (I-2=Movento), 15 trees sprayed with water (presample each pot); 25 mL/tree
Add Tylenchulus semipenetrans larvae to all pots. The following day take trees out of greenhouse. Cover top of pot to exclude spray from soil. (I-2) (SC 240) is sprayed in a concentration of 2.6 ml plus 2.5 ml adjuvant MSO (methylated seed oil), (100% active w/v, added to the spray solution at 0.25% v/v) per liter sprac solution. Spray canopy from two sides of trees to runoff with a 2 gallon “Sure Spray” pump sprayer (Chapin Mfg.) using a nozzle that delivers a cone shape spray pattern. Allow material to dry before returning plants to greenhouse. Repeat in 14 days.
For this citrus nematode trial, 5-year old Volkamer lemon seedlings are infested with T. semipenetrans obtained from the field and maintained in the greenhouse (25-32° C.) for use in pesticide trials. Trees used in the experiment are not treated with nematicidal compounds. The seedlings are growing in a 50:50 mixture of Astatula sand (97% sand) and Pro-mix potting mixture in rectangular pots (10×10×30 cm). Trees are irrigated normally, but receive no fertilizer or pesticide treatments other than (I-2) during the experiment. Effects on citrus nematode are evaluated by soil sampling 30 days and 60 days after treatment.
Tylenchulus semipenetrans raw data (juvenile and male nematodes per […] soil. Pi is initial population before treatment, Pf is final population at one and two months post treatment).

[5] = system: Meloidogyne arenaria; test: Tomato pot trial, root-knot nematode galling index and eggs per root system; conditions: for Galling index: 78 d after first treatment, mean; for Appearance of root system (galls, egg masses, rot): visual, at harvest
Protocol: The experiment is carried out in a shade house at a temperature of around 78 F (76-80 F). The experiment is conduced in a complete randomize design with seven treatments and six replications. 6 inch pots are filled with 1,500 g of steam pasteurized (194 F for 2:30 h) field soil per pot and a 4 weeks old tomato cv. Rutgers transplant is added. The soil is an Arredondo fine sand with ca. 92% sand and 1% om. The soil is taken from a site with no history of root-knot nematode infestation.
The first preventive treatments of Vydate CLV and (I-2) (SC 240; adjuvant: Dyne-Amic (a blend of nonionic and organosilicone surfactants and MSO), 99% active w/v, added 0.25% v/v) are applied as foliar spray. Fosthiazate 900 is applied as a soil drench in 40 gallons water per acre. The second preventive application of Vydate and (I-2) are sprayed over foliage 7 days after l^st treatment. The soil is inoculated by adding 5,000 eggs/pot of Meloidogyne arenaria one day after the 2nd treatment. The curative treatments of Vydate and (I-2) are applied as a foliar spray on 21 and 28 days after inoculation with Meloidogyne arenaria.
All (I-2) and Vydate treatments are applied in 40 gallons of water/acre by a CO2 pressurized sprayer with a single 8003 VS TeeJet noozle. The tomato plants for each treatment are lined up in a row with the spray directed over their foliage until noticeable drip.
78 days after the 1st treatment the plants are harvested. Each root system is evaluated for the percentage of root-knot nematode galling and eggs per root system. A 1 to 6 scale is used for estimating the number galls per root system as follows: 1=no galls on the root system; 2=10%; 3=11 to 30%; 4=31 to 70%; 5=71 to 90%; 6=100% root system galled. Following the determination of percentage of galling the roots are processed in a bleach solution to dissolve away the gelatinous matrix surrounding the eggs. Individual eggs are collection on a 500 mesh sieve and poured into a counting dish for determining their numbers.

[6] = preventive treatment, tomato cv. Rutgers, scale 1 to 6 (1 = no galls, 6 = 100% of root system galled)
[7] = preventive treatment, tomato, 5,000 eggs/pot inoculated

## CCOC(=O)OC1=C(c2cc(C)ccc2C)C(=O)N[C@]12CC[C@@H](OC)CC2 [(I-2)]
[1]
  Activity against Mesocriconema xenoplax, number of nematodes, 30 d: 861.2 nematodes in 500 g of soil
  Activity against Mesocriconema xenoplax, number of nematodes, 60 d: 942.8 nematodes in 500 g of soil
  Activity against Mesocriconema xenoplax, number of nematodes, 0 d: 1817 nematodes in 500 g of soil
[2]
  Activity against Meloidogyne incognita, number of nematodes, 0 d: 312 nematodes in 500 g of soil
  Activity against Meloidogyne incognita, number of nematodes, 30 d: 140.8 nematodes in 500 g of soil
  Activity against Meloidogyne incognita, number of nematodes, 60 d: 178.8 nematodes in 500 g of soil
[3]
  Activity against Pratylenchus sp., number of nematodes, 30 d: 371.2 nematodes in 500 g of soil
  Activity against Pratylenchus sp., number of nematodes, 60 d: 454 nematodes in 500 g of soil
  Activity against Pratylenchus sp., number of nematodes, 0 d: 826 nematodes in 500 g of soil
[4]; Volkamer lemon seedlings in pots, before treatment
  Treat Pi (initial population before treatment): 2412.5 juvenile and male nematodes per 100 cm^2 soil and 2100.0 juvenile and male nematodes per 100 cm^2 soil and 1700.0 juvenile and male nematodes per 100 cm^2 soil and 9237.5 juvenile and male nematodes per 100 cm^2 soil and 4180.0 juvenile and male nematodes per 100 cm^2 soil and 400.0 juvenile and male nematodes per 100 cm^2 soil and 4250.0 juvenile and male nematodes per 100 cm^2 soil (2×) and 1625.0 juvenile and male nematodes per 100 cm^2 soil and 125.0 juvenile and male nematodes per 100 cm^2 soil (2×) and 2190.0 juvenile and male nematodes per 100 cm^2 soil and 210.0 juvenile and male nematodes per 100 cm^2 soil and 2490.0 juvenile and male nematodes per 100 cm^2 soil and 250.0 juvenile and male nematodes per 100 cm^2 soil
[4]; (I-2) SC 240 2.6 ml/l plus MSO foliar, repeated after 14 days, one month post treatment
  Treat Pf (final population one month post treatment): 168.83 juvenile and male nematodes per 100 cm^2 soil and 519.74 juvenile and 534.25 juvenile and 1440.00 juvenile and 2753.33 juvenile and 336.84 juvenile and 708.33 juvenile and 638.16 juvenile and 87.21 juvenile and 1803.37 juvenile and 1402.78 juvenile and 60.81 juvenile and 1448.86 juvenile and 86.21 juvenile and 54.35 juvenile
[4]; (I-2) SC 240 2.6 ml/l plus MSO foliar, repeated after 14 days, two months post treatment
  Treat Pf2 (final population two months post treatment): 181.82 juvenile and male nematodes per 100 cm^2 soil and 380.95 juvenile and 338.71 juvenile and 1207.55 juvenile and 7807.69 juvenile and 347.46 juvenile and 1908.33 juvenile and 4122.22 juvenile and 175.44 juvenile and 1409.84 juvenile and 3205.36 juvenile and 92.59 juvenile and 1481.13 juvenile and 551.02 juvenile and 531.25 juvenile
[5]; curative treatment (21 and 28 days after inoculation), tomato
  Number of eggs/root system 78 d after first treatment: 141,000 eggs/root system
[5]; curative treatment (21 and 28 days after inoculation), tomato, scale 1 to 6
  Galling index: 4.5
[5]; curative treatment
  Appearance of root system (galls, egg masses, rot): little darkening or rotting appearance
[5]; [6]
  Galling index: 6.0
[5]; [7]
  Number of eggs/root system 78 d after first treatment: 421,600 eggs/root system
[5]; preventive treatment
  Appearance of root system (galls, egg masses, rot): numerous egg masses and coalesced galls

## CCOP(=O)(SC(C)CC)N1CCSC1=O (stereo not drawn) [Fosthiazate, reference compound]
[5]; [6]
  Galling index: 5.3
[5]; [7]
  Number of eggs/root system 78 d after first treatment: 453,500 eggs/root system
[5]; preventive treatment
  Appearance of root system (galls, egg masses, rot): darkened decaying roots with numerous galls and egg masses

## O=[N+]([O-])NC1=NCCN1Cc1ccc(Cl)nc1 [Imidacloprid, reference compound]
[1]
  Activity against Mesocriconema xenoplax, number of nematodes, 30 d: 808.4 nematodes in 500 g of soil
  Activity against Mesocriconema xenoplax, number of nematodes, 60 d: 958.46 nematodes in 500 g of soil
  Activity against Mesocriconema xenoplax, number of nematodes, 0 d: 1863 nematodes in 500 g of soil
[2]
  Activity against Meloidogyne incognita, number of nematodes, 0 d: 267 nematodes in 500 g of soil
  Activity against Meloidogyne incognita, number of nematodes, 30 d: 171 nematodes in 500 g of soil
  Activity against Meloidogyne incognita, number of nematodes, 60 d: 188 nematodes in 500 g of soil
[3]
  Activity against Pratylenchus sp., number of nematodes, 30 d: 320 nematodes in 500 g of soil
  Activity against Pratylenchus sp., number of nematodes, 60 d: 319.6 nematodes in 500 g of soil
  Activity against Pratylenchus sp., number of nematodes, 0 d: 406 nematodes in 500 g of soil
